Measurements reported in patent US11419866B2, “Pharmaceutical composition for sustained release delivery of buprenorphine” (Foresee Pharmaceuticals Co., Ltd., priority 2018, dated 2022).
Marks after values point to notes of the source that are not given here.

What was measured:
[1] = Color stabilization by antioxidant in buprenorphine formulation, visual inspection (Example 3); type: physicochemical; conditions: overtime under stress condition
[2] = Solubility of buprenorphine in BA/OA combination vehicles at room temperature

N[C@@H](CS)C(=O)O [Cys, cysteine]
capacity of color mitigation in buprenorphine formulation [1]: milder color stabilizing effect

N[C@@H](CCC(=O)N[C@@H](CS)C(=O)NCC(=O)O)C(=O)O [Glu, glutathione]
capacity of color mitigation in buprenorphine formulation [1]: milder color stabilizing effect

O=C(O)CCCCC1CCSS1 (stereo not shown) [LipA, lipoic acid]
capacity of color mitigation in buprenorphine formulation [1]: milder color stabilizing effect

OCC(O)CS (stereo not shown) [MTG, monothioglycerol]
capacity of color mitigation in buprenorphine formulation [1]: stronger capacity of color mitigation | benzyl aldehyde formation promoted by thiolated antioxidant (BA/OA solution): positive benzyl aldehyde formation | benzyl aldehyde formation with addition of VC (thiolated antioxidant containing BA/OA solution): inhibition effect of benzyl aldehyde

O=C([O-])CS.[Na+] [STG, sodium thioglycolate]
capacity of color mitigation in buprenorphine formulation [1]: stronger capacity of color mitigation

O=C(O)CS [TGA, thioglycolic acid]
capacity of color mitigation in buprenorphine formulation [1]: stronger capacity of color mitigation

CO[C@]12CC[C@@]3(C[C@@H]1[C@](C)(O)C(C)(C)C)[C@H]1Cc4ccc(O)c5c4[C@@]3(CCN1CC1CC1)[C@H]2O5 [buprenorphine, (25)-2-[(−)-(5R,6R,7R,14S)-9a-cyclo-propyl-methyl-4,5-epoxy-6,14-ethano-3-hydroxy-6-methoxymorphinan-7-yl]-3,3-di-methylbutan-2-ol]
Solubility of buprenorphine ([2]; BA/OA vehicle, OA wt % 0, room temperature): 21.2% | Solubility of buprenorphine ([2]; BA/OA vehicle, OA wt % 5, room temperature): 22.5% | Solubility of buprenorphine ([2]; BA/OA vehicle, OA wt % 10, room temperature): 25.4% | Solubility of buprenorphine ([2]; BA/OA vehicle, OA wt % 15, room temperature): 30.7%* | Solubility of buprenorphine ([2]; BA/OA vehicle, OA wt % 18, room temperature): 30.8%* | Solubility of buprenorphine ([2]; BA/OA vehicle, OA wt % 30, room temperature): 33.1%* | Solubility of buprenorphine ([2]; BA/OA vehicle, OA wt % 40, room temperature): 36.2%* | Solubility of buprenorphine ([2]; OA wt % 100, room temperature): 27.7%
